Measured values published in patent US11415579B2, “Assay for measuring a rate of reaction between a target and a ligand candidate” (Imperial College Innovations Ltd., priority 2016, dated 2022).

Legend:
[1] = Kinetic thiol consumption assay with model thiol glutathione; assay type: physicochemical; design: Rate constant with glutathione (k(GSH)): unit not given here; conditions: for Rate constant with glutathione (k(GSH)): 500 μM ligand, 5 μM thiol, phosphate buffer pH 8; for Rate constant with Glutathione: Protein: Glutathione, cysteine position NA, in h-1
Procedure, shortened: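 Rate constants for acrylamide reaction with 5 μM glutathione come from first-order exponential fits of normalized fluorescence decay (ex 380, em 470 nm). Reactions run in degassed phosphate buffer at pH 8 containing TCEP beads, room temperature.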

[2] = biological target: T1, human cyclin-dependent kinase 2 (Cdk2) (Homo sapiens, UniProt P24941); assay: Kinetic thiol consumption assay with wild type Cdk2 (C177); assay type: binding; design: key to Rate enhancement, Cdk2 WT: k(Cdk2) divided by k(model thiol); Rate constant with Cdk2 (k(Cdk2)): unit not given here; conditions: for Rate constant with Cdk2 (k(Cdk2)): 500 μM ligand, 5 μM thiol, phosphate buffer pH 8; for Rate enhancement, Cdk2 WT: no additional mutations; for Rate constant with Cdk2 WT: Protein: Cdk2, cysteine position WT, in h^-1; for k(Cdk2)/k(Cdk2_mut) rate enhancement: model thiol Cdk2[C177A, F80C, K278C]; for k(Cdk2)/k(GSH) rate enhancement: model thiol glutathione
T1 construct: poly-histidine; made in house; host or cells: E. coli
Procedure, shortened: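 Rate enhancement: first-order decay constant with Cdk2 over that with a model thiol. Thiols (5 μM, degassed phosphate buffer pH 8, immobilized TCEP) were incubated with acrylamides at room temperature, and thiol consumption followed by fluorescence at 380/470 nm, normalized to DMSO control. Cdk2 was His-tagged, E. coli-expressed, with one surface cysteine (C177).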

[3] = biological target: T2, Cdk2[C177A, F80C, K278C] (Homo sapiens, UniProt P24941, C177A/F80C/K278C); assay: Kinetic thiol consumption assay with mutant Cdk2 as model thiol; assay type: binding; design: unit not given here; conditions: 500 μM ligand, 5 μM thiol, phosphate buffer pH 8
T2 construct: poly-histidine; made in house; host or cells: E. coli
Procedure, shortened: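 First-order rate constants were derived by exponential-decay fitting of DMSO/thiol-normalized fluorescence (380/470 nm) over time at room temperature. Thiol was 5 μM E. coli-expressed His-tagged Cdk2 mutant C177A/F80C/K278C in degassed pH 8 phosphate buffer containing 2% v/v TCEP beads.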

[4] = biological target: T3, Cdk2(C177A, F80C) (Homo sapiens, UniProt P24941, C177A/F80C); assay: Kinetic thiol consumption assay with Cdk2 mutant F80C, incl. kobs versus concentration (Kd, k2); assay type: binding; design: key to Rate enhancement, Cdk2 F80C: Cdk2 rate constant divided by model-thiol rate constant; conditions: additional mutation C177A; for Rate constant with Cdk2 F80C: Protein: Cdk2, cysteine position F80C, in h^-1
T3 construct: poly-histidine; made in house; host or cells: E. coli
Procedure, shortened: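 His-tagged Cdk2(C177A/F80C) from E. coli or model thiol, 5 μM in degassed phosphate buffer pH 8 with TCEP beads, reacted with acrylamide ligands; fluorescence (ex/em 380/470 nm) normalized to DMSO control and fitted to first-order decay for kobs. Kd and k2 obtained from hyperbolic fit of kobs versus ligand concentration.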

[5] = biological target: T4, Cdk2(H71C) (C177A) (Homo sapiens, UniProt P24941, C177A/H71C); assay: Kinetic thiol consumption assay with Cdk2 mutant H71C; assay type: binding; design: key to Rate enhancement, Cdk2 H71C: rate constant with Cdk2 ÷ rate constant with model thiol (fold); conditions: additional mutation C177A; for Rate constant with Cdk2 H71C: Protein: Cdk2, cysteine position H71C, in h^-1
T4 construct: poly-histidine; made in house; host or cells: E. coli
Procedure, shortened: (§1)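 Read-out is fluorescence at 380/470 nm, taken after 1 h at room temperature and normalized to a DMSO/thiol-only control over time. Thiol (5 μM Cdk2 mutant or model thiol) was in degassed pH 8 phosphate buffer with 2% v/v TCEP beads. Acrylamide rate constants for Cdk2 were divided by those with model thiol.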

[6] = biological target: T5, Cdk2(S276C) (C177A) (Homo sapiens, UniProt P24941, C177A/S276C); assay: Kinetic thiol consumption assay with Cdk2 mutant S276C; assay type: binding; design: key to Rate enhancement, Cdk2 S276C: rate constant with Cdk2 ÷ rate constant with model thiol (fold); conditions: additional mutation C177A; for Rate constant with Cdk2 S276C: Protein: Cdk2, cysteine position S276C, in h^-1
T5 construct: poly-histidine; made in house; host or cells: E. coli
Procedure, shortened: as §1

[7] = biological target: T6, Cdk2(N272C) (C177A) (Homo sapiens, UniProt P24941, C177A/N272C); assay: Kinetic thiol consumption assay with Cdk2 mutant N272C; assay type: binding; design: key to Rate enhancement, Cdk2 N272: rate constant with Cdk2 ÷ rate constant with model thiol (fold); conditions: for Rate enhancement, Cdk2 N272: Cdk2 N272, additional mutation C177A; for Rate constant with Cdk2 N272C: Protein: Cdk2, cysteine position N272C, additional mutation C177A, in h^-1
T6 construct: poly-histidine; made in house; host or cells: E. coli
Procedure, shortened: as §1

[8] = biological target: T7, Cdk2(T182C) (C177A) (Homo sapiens, UniProt P24941, C177A/T182C); assay: Kinetic thiol consumption assay with Cdk2 mutant T182C; assay type: binding; design: key to Rate enhancement, Cdk2 T182C: rate constant with Cdk2 ÷ rate constant with model thiol (fold); conditions: additional mutation C177A; for Rate constant with Cdk2 T182C: Protein: Cdk2, cysteine position T182C, in h^-1
T7 construct: poly-histidine; made in house; host or cells: E. coli
Procedure, shortened: as §1

[9] = biological target: T8, Cdk2(R122C) (C177A) (Homo sapiens, UniProt P24941, C177A/R122C); assay: Kinetic thiol consumption assay with Cdk2 mutant R122C; assay type: binding; design: key to Rate enhancement, Cdk2 R122C: rate constant with Cdk2 ÷ rate constant with model thiol (fold); conditions: additional mutation C177A; for Rate constant with Cdk2 R122C: Protein: Cdk2, cysteine position R122C, in h-1
T8 construct: poly-histidine; made in house; host or cells: E. coli
Procedure, shortened: as §1

[10] = biological target: T9, Cdk2(S181C) (C177A) (Homo sapiens, UniProt P24941, C177A/S181C); assay: Kinetic thiol consumption assay with Cdk2 mutant S181C; assay type: binding; design: key to Rate enhancement, Cdk2 S181C: rate constant with Cdk2 ÷ rate constant with model thiol (fold); conditions: additional mutation C177A; for Rate constant with Cdk2 S181C: Protein: Cdk2, cysteine position S181C, in h^-1
T9 construct: poly-histidine; made in house; host or cells: E. coli
Procedure, shortened: as §1

Rate constant with Cdk2 (k(Cdk2)) [2] | Rate enhancement, Cdk2 WT [2] | Rate constant with Cdk2 WT [2] | k(Cdk2)/k(Cdk2_mut) rate enhancement [2] | k(Cdk2)/k(GSH) rate enhancement [2] | Rate constant with Cdk2[C177A, F80C, K278C] (k(Cdk2_mut)) [3] | Rate enhancement, Cdk2 F80C [4] | Rate enhancement, Cdk2 H71C [5] | Rate enhancement, Cdk2 S276C [6] | Rate constant with Cdk2 S276C [6] | Rate enhancement, Cdk2 N272 [7] | Rate constant with Cdk2 N272C [7] | Rate enhancement, Cdk2 T182C [8] | Rate constant with Cdk2 T182C [8] | Rate enhancement, Cdk2 R122C [9] | Rate constant with Cdk2 R122C [9] | Rate enhancement, Cdk2 S181C [10] | Rate constant with Cdk2 S181C [10] | Compound | Rate constant with glutathione (k(GSH)) [1] | Rate constant with Glutathione [1] | other results
0.014 | 4.291 | 0.03792 | 1.746 | 2.839 | 0.00802 | 1.059 | 0.2745 | 3.446 | 0.03045 | 1.495 | 0.01321 | 17.17 | 0.1517 | 0.3144 | 0.002778 | 2.376 | 0.021 | C=CC(=O)NCC1(NC(=O)OC(C)(C)C)CCCCC1 [EL-1143] | 0.00493 | 0.008837 | Rate constant with Cdk2 F80C [4]: 0.009355; Rate constant with Cdk2 H71C [5]: 0.002426
0.00103 | 0.3642 | 0.001028 | 0.2449 | 0.3619 | 0.00419 | 0 | 0 | 2.7205E−11 | 7.68E−14 | 4.534 | 0.0128 | 0.474 | 0.001338 | 0.9706 | 0.00274 | 0.7428 | 0.002097 | C=CC(=O)NC(C)c1cccc(N2CCOCC2)c1 (stereo not shown) [EL-1153] | 0.00284 | 0.002823 | –

The remaining lines, values behind:

Compound | Rate constant with Cdk2 (k(Cdk2)) [2] | Rate enhancement, Cdk2 WT [2] | Rate constant with Cdk2 WT [2] | k(Cdk2)/k(Cdk2_mut) rate enhancement [2] | k(Cdk2)/k(GSH) rate enhancement [2] | Rate constant with Cdk2[C177A, F80C, K278C] (k(Cdk2_mut)) [3] | Rate enhancement, Cdk2 F80C [4] | Rate enhancement, Cdk2 H71C [5] | Rate enhancement, Cdk2 S276C [6] | Rate constant with Cdk2 S276C [6] | Rate enhancement, Cdk2 N272 [7] | Rate constant with Cdk2 N272C [7] | Rate enhancement, Cdk2 T182C [8] | Rate constant with Cdk2 T182C [8] | Rate enhancement, Cdk2 R122C [9] | Rate constant with Cdk2 R122C [9] | Rate enhancement, Cdk2 S181C [10] | Rate constant with Cdk2 S181C [10] | Rate constant with glutathione (k(GSH)) [1] | Rate constant with Glutathione [1] | other results
C=CC(=O)N1CCN(c2ccccc2[N+](=O)[O-])CC1 [EL-1134] | 0.0071 | 1.609 | 0.007099 | 0.3385 | 1.597 | 0.02097 | 3.947 | 4.627 | 1.414 | 0.006242 | 1.119 | 0.004938 | 14.4 | 0.06354 | 1.145 | 0.005054 | 1.601 | 0.007065 | 0.00444 | 0.004413 | Rate constant with Cdk2 F80C [4]: 0.01742; Rate constant with Cdk2 H71C [5]: 0.02042
C=CC(=O)N1CCCCCC1c1ccc(N(C)C)cc1 (stereo not shown) [EL-1140] | 0.00303 | 0.6141 | 0.00499 | 0.7455 | 0.3806 | 0.00407 | 0.7204 | 0 | 0.2024 | 0.001645 | 0.1121 | 0.0009109 | 1.338 | 0.01087 | 0.3699 | 0.003006 | 0.6713 | 0.005455 | 0.00797 | 0.008126 | Rate constant with Cdk2 F80C [4]: 0.005854
C=CC(=O)N1CCC(c2nc3ccccc3[nH]2)CC1 [EL-1152] | 0.00612 | 1.186 | 0.007039 | 1.055 | 1.009 | 0.0058 | 0.816 | 0.6643 | 2.027 | 0.01203 | 0.326 | 0.001935 | 3.834 | 0.02276 | 0.7476 | 0.004438 | 0.9565 | 0.005678 | 0.00606 | 0.005936 | Rate constant with Cdk2 F80C [4]: 0.004844; Rate constant with Cdk2 H71C [5]: 0.003943
C=CC(=O)N1CCN(c2ccccc2C(N)=O)CC1 [EL-1155] | 0.00466 | 0.4144 | 0.004658 | 1.221 | 0.5575 | 0.00382 | 0.3142 | 0.4653 | 1.346 | 0.01513 | 1.099 | 0.01235 | 2.129 | 0.02393 | 0.5734 | 0.006445 | 0.5376 | 0.006043 | 0.00836 | 0.01124 | Rate constant with Cdk2 F80C [4]: 0.003532; Rate constant with Cdk2 H71C [5]: 0.00523
C=CC(=O)N1CCN(c2cccc3cccnc23)CC1 [EL-1156] | 0.01873 | 1.065 | 0.01873 | 0.8683 | 1.062 | 0.02157 | 1.015 | 0.3885 | 1.35 | 0.02375 | 0.3397 | 0.005976 | 4.097 | 0.07206 | 0.6879 | 0.0121 | 1 | 0.01759 | 0.01763 | 0.01759 | Rate constant with Cdk2 F80C [4]: 0.01786; Rate constant with Cdk2 H71C [5]: 0.006834
